Key:
human H3 receptor [1] = molecular target: T1, human H3 receptor (Homo sapiens, UniProt Q9Y5N1); assay: In vitro H3 functional assay (cAMP response element driven luciferase reporter); type: cell-based; conditions: CHO(dhfr+)-cre-luc cells expressing human H3 receptor; RαMH 10 nM, forskolin 1 μM; read-out: hH3 functional IC50
T1 construct: expressed in transfected cells
Experimental: The functional activity of compounds at the H3 receptor was determined by measuring changes in the level of intracellular cAMP using a cAMP response element driven luciferase reporter assay. The changes in luciferase expression were monitored by a luminescence plate reader, Analyst HT (MDS Analytical). Increases in intracellular cAMP were readily detected upon activation of protein kinase A by forskolin (Sigma) and suppression of this response observed with the application of the H3 receptor agonist RαMH (Sigma).
CHO(dhfr^+)-cre-luc cells stably expressing human H3 receptor were routinely grown as monolayers in Minimal Essential Medium α (MEMα) (Invitrogen) supplemented with 10% dialysed FBS (Hyclone), in 5% CO2 at 37° C. 48 hours prior to assay, cells were seeded in clear-base white walled 384-well plates (Corning) at a density of 5000 cells/well. On the day of assay, growth media was removed and replaced with […] of assay buffer (MEMα, 5 mg/ml fatty acid free BSA (Sigma)) per well. Cells were then incubated for 30 minutes at 37° C., 5% CO2. Compound was serially diluted in DMSO before being diluted 1:10 with assay buffer. 2.5 of compound diluted in assay buffer was added and cells incubated for 5 minutes at 37° C., 5% CO2. 2.5 μl of each reagent was then added in the following order: RαMH (10 nM), isobutylmethylxanthine (1-methyl-3-(2-methylpropyl)-7H-purine-2,6-dione; IBMX) (500 μM) (Sigma) and forskolin (1 μM). Cells were then incubated for 90 minutes at 37° C., 5% CO2, followed by 30 minutes at room temperature. At the end of incubation 25 μl of Steadylite reagent (Perkin Elmer) was added, plates were sealed and placed on a shaker for 5 minutes. The level of light output to determine the level of luciferase expression was then measured.
IC50 values for compounds were determined from ten point half log scale dose-response studies and represent the concentration of compound required to […] 50% inhibition of forskolin stimulated cells in the presence of RαMH alone. Curves were generated using the average of duplicate wells for each data point and analyzed using nonlinear regression of four parameter dose response.

human H3 receptor [2] = molecular target: T1, human H3 receptor; assay: In vitro H3 binding assay (3H-N-α-methyl-histamine competition binding); conditions: membranes of CHO-K1 cells expressing human H3 receptor; 2 nM 3H-NαMH; read-out: hH3 binding IC50
Outline: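 Membranes from CHO-K1 cells stably expressing human H3 (5 μg/well) incubated 1 h at room temperature with compound and 2 nM ³H-NαMH in 50 mM Tris-HCl pH 7.4, 5 mM MgCl2; non-specific binding defined with 1 μM RαMH. Bound radioactivity measured by filtration and scintillation; IC50 from seven-point curves by variable-slope sigmoidal regression.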

T1 sequence (Q9Y5N1 whole entry): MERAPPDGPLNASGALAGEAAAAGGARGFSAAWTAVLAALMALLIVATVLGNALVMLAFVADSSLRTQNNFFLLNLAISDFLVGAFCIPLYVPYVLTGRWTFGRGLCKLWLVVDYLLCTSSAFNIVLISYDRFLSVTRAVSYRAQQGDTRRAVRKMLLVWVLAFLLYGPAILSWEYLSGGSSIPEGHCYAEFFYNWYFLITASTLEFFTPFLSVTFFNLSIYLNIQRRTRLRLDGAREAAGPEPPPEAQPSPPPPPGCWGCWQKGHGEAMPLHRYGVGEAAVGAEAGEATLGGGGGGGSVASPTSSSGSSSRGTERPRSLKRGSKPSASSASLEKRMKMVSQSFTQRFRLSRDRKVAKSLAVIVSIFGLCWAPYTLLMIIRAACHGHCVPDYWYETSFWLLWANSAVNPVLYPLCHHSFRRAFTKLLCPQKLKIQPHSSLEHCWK

IC50 (human H3 receptor [1]) [nM]	IC50 (human H3 receptor [2]) [nM]	SMILES
4	1	O=C(NCc1ccc2c(c1)CCN(C1CCC1)CC2)c1ccc(NC2CCC2)nc1 [Example 253, N-((3-cyclobutyl-2,3,4,5-tetrahydro-1H-benzo[d]azepin-7-yl)methyl)-6-(cyclobutylamino)nicotinamide]
3	0.3	O=C(NCc1ccc2c(c1)CCN(C1CCC1)CC2)c1cnc(N2CCCC2)nc1 [Example 256, N-((3-cyclobutyl-2,3,4,5-tetrahydro-1H-benzo[d]azepin-7-yl)methyl)-2-(pyrrolidin-1-yl)pyrimidine-5-carboxamide]
10	25	COc1ccc(C(=O)NCc2ccc3c(c2)CCN(C2CC(O)C2)CC3)cn1 (centres unmarked) [Example 262, N-((3-(3-hydroxycyclobutyl)-2,3,4,5-tetrahydro-1H-benzo[d]azepin-7-yl)methyl)-6-methoxynicotinamide]
6	18	Cc1noc(C)c1C(=O)NCc1ccc2c(c1)CCN(C1CCC1)CC2 [Example 263, N-[(3-cyclobutyl-2,3,4,5-tetrahydro-1H-3-benzazepin-7-yl)methyl]-3,5-dimethyl-1,2-oxazole-4-carboxamide]
4	6	C[C@@H]1CCCN1C(=O)NCc1ccc2c(c1)CCN(C1CCC1)CC2 [Example 265, (R)—N-((3-cyclobutyl-2,3,4,5-tetrahydro-1H-benzo[d]azepin-7-yl)methyl)-2-methylpyrrolidine-1-carboxamide]
34	61	O=C1CCCN1Cc1ccc2c(c1)CCN(C1CCC1)CC2 [Example 304, 1-((3-cyclobutyl-2,3,4,5-tetrahydro-1H-benzo[d]azepin-7-yl)methyl)pyrrolidin-2-one]
2	18	CCCOc1ccc(C(=O)NCc2ccc3c(c2)CCN(C2CCC2)CC3)cn1 [Example 306, N-((3-cyclobutyl-2,3,4,5-tetrahydro-1H-benzo[d]azepin-7-yl)methyl)-6-propoxynicotinamide]

Reference: patent US20110124626A1, “BENZAZEPINE DERIVATIVES AND THEIR USE AS HISTAMINE H3 ANTAGONISTS” (TAKEDA PHARMACEUTICAL COMPANY LIMITED, priority 2008, published 2011)
